Here are results for 12 molecules from patent publication US11306072B2, “5-bromo-indirubins” (City of Hope, priority 2013, dated 2022).

Molecules are shown by their SMILES. Like-named read-outs stand apart in the source and are kept apart here.

One assay addresses ABL1 (Homo sapiens, UniProt P00519). Put plainly: In vitro kinase assay with recombinant protein (33P-ATP), ABL1. Format: biochemical. The conditions noted are these: 120 min at room temperature, read-out: IC50 against kinase activity in vitro, ABL1. The procedure:
(§1) The kinase assays were performed with recombinant proteins. Briefly, proteins, freshly prepared substrates and ^33P-ATP (specific activity 0.01 μCi/μl final) were mixed in reaction buffer (20 mM HEPES pH 7.5, 10 mM MgCl2, 1 mM EGTA, 0.02% Brij35, 0.02 mg/ml BSA, 0.1 mM Na3VO4, 2 mM DTT) in the presence of DMSO as control or 5BIODs. The mixtures were reacted for 120 min at room temperature. Samples were transferred onto P81 ion exchange paper and filters were extensively washed with 0.75% phosphoric acid. The radioactivities were monitored.

Another assay has as its target T1, AuroraA (Homo sapiens, UniProt O14965).
T1 sequence (O14965 1-403): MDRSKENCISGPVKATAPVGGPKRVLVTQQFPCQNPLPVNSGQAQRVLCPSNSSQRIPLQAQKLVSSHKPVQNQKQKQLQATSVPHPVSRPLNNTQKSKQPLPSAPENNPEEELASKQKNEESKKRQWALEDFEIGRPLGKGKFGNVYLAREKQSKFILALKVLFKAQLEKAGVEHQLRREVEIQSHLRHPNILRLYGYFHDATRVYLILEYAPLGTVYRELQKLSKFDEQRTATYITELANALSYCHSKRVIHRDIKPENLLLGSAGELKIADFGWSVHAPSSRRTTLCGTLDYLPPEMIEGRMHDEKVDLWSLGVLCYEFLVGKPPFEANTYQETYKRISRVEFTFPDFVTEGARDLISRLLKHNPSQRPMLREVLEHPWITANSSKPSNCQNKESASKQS
In words: In vitro kinase assay with recombinant protein (33P-ATP), AuroraA. Type of assay: biochemical. The note with it: 120 min at room temperature, read-out: IC50 against kinase activity in vitro, AuroraA. The method, then: as §1

In the next assay the target is JAK2 (Homo sapiens, UniProt O60674). Put plainly: In vitro kinase assay with recombinant protein (33P-ATP), JAK2. The note with it: 120 min at room temperature, read-out: IC50 against kinase activity in vitro, JAK2. Format: biochemical. The procedure: as §1
Chain of JAK2 (O60674 whole entry): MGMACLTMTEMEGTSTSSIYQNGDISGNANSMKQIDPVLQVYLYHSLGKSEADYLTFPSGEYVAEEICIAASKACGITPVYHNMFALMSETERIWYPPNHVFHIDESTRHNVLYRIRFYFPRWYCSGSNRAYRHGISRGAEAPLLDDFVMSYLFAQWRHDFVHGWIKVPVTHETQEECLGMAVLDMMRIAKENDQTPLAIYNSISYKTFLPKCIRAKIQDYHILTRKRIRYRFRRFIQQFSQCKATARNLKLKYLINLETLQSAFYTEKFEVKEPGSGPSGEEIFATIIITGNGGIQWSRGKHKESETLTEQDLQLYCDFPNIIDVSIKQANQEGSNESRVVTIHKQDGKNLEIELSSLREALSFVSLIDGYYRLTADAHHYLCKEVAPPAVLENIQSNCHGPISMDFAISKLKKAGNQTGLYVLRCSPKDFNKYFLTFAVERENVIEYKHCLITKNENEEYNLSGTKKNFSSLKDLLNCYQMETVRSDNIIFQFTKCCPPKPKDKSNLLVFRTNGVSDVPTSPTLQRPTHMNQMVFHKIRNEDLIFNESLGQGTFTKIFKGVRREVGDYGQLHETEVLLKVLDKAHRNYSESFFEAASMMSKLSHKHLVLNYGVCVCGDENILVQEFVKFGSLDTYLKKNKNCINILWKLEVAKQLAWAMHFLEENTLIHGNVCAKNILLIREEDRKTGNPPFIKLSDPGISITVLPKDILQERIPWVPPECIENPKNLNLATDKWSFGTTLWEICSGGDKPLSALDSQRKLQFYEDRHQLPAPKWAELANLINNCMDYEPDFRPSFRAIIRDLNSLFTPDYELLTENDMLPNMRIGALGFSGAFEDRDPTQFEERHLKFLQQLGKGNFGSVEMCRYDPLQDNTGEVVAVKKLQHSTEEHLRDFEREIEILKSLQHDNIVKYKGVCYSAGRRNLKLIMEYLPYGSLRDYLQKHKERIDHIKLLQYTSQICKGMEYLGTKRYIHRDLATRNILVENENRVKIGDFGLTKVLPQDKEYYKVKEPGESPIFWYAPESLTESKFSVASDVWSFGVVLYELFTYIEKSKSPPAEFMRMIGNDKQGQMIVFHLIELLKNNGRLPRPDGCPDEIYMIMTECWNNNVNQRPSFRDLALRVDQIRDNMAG
For another assay, the target named is c-Src (Homo sapiens, UniProt P12931). Put plainly: In vitro kinase assay with recombinant protein (33P-ATP), c-Src. The note with it: 120 min at room temperature, read-out: IC50 against kinase activity in vitro, c-Src. Format: biochemical. The method, then:
as §1

A further assay has as its target TYK2 (Homo sapiens, UniProt P29597). Put plainly: In vitro kinase assay with recombinant protein (33P-ATP), TYK2. Format: biochemical. The conditions noted are these: 120 min at room temperature, read-out: IC50 against kinase activity in vitro, TYK2. The method, then:
as §1

The subject of assay [1] is T315I Abl mutant KCL-22 CML cells. Put plainly: MTS cell viability assay, T315I Abl mutant KCL-22 CML cells. Type of assay: cell-based. The note with it: Homo sapiens, 48 h exposure, quadruplicate, read-out: IC50 values against cancer cells, T315l Alb mutant KCL-22 CML. The procedure: (§2) FIGS. 2A-2G. Effects of 5BIODs on viabilities of human cancer cells; MTS assays were performed for cell viability; human A549 non-small cell lung cancer (FIG. 2A), MDA-MB-231 and MDA-MB-468 breast cancer (FIG. 2B), A2058 melanoma (FIG. 2C), DU145 prostate cancer (FIG. 2D), SKOV3 ovarian cancer (FIG. 2E), T315I Abl mutant KCL-22 CML (FIG. 2F) and MIA-PaCa2 pancreatic cancer (FIG. 2G) cells were seeded in 96-well plates (5000/well for solid tumor cell lines and 10000 cells/well for CML cell line), incubated overnight at 37° C. in 5% (v/v) CO2 and exposed to 5BIODs at 1 μM or 10 μM concentration for 48 h; DMSO was used as the vehicle control; cell viability was determined by tetrazolium conversion to its formazan dye and absorbance was measured at 490 nm using an automated ELISA plate reader; each experiment was performed in quadruplicate. Histogram ordering: FIG. 2B depicts MDA-MB-231 (black) and MDA-MB-468 (gray), in order left to right; FIG. 2C: 1 μM (gray); 10 μM (black), in order left to right; FIG. 2D: 1 μM (gray); 10 μM (black), in order left to right;
In general terms: Tetrazolium dyes change colour on reduction, which living cells bring about.

Assay [2] has as its system MDA-MB-231 breast cancer cells. Put plainly: MTS cell viability assay, MDA-MB-231 breast cancer cells. Format: cell-based. The conditions noted are these: Homo sapiens, 48 h exposure, quadruplicate, read-out: IC50 values against cancer cells, MDA-MB-231 breast. The method, then:
as §2

The subject of assay [3] is A549 non-small cell lung cancer cells. Put plainly: MTS cell viability assay, A549 lung cancer cells. Type of assay: cell-based. The note with it: Homo sapiens, 48 h exposure, quadruplicate, read-out: IC50 values against cancer cells, A549 lung. The procedure: as §2
The target of the next assay is ABL1 (T315I) (Homo sapiens, UniProt P00519, T315I). In words: In vitro kinase assay with recombinant protein (33P-ATP), ABL1 (T315I). Format: biochemical. The conditions noted are these: 120 min at room temperature, read-out: IC50 against kinase activity in vitro, ABL1 (T315I). The procedure:
as §1

For assay [4], the system named is SKOV3 ovarian cancer cells. Put plainly: MTS cell viability assay, SKOV3 ovarian cancer cells. Format: cell-based, human. The conditions noted are these: for IC50: Homo sapiens, SK-OV-3, MTS cell viability, 48 h exposure, quadruplicate, read-out: IC50 values against cancer cells, SKOV3 ovarian; for effect on viabilities of SKOV3 ovarian cancer cells: MTS assay, FIG. 3 legend, result in words.

A further assay relates to A2058 melanoma cells. In words: MTS cell viability assay, A2058 melanoma cells. The note with it: quadruplicate, read-out: IC50 values against cancer cells, A2058 melanoma. Format: cell-based, human. The method, then:
as §2

The test system of assay [5] is MIA-PaCa2 pancreatic cancer cells. In words: MTS cell viability assay, MIA-PaCa2 pancreatic cancer cells. Format: cell-based. The conditions noted are these: Homo sapiens, 48 h exposure, quadruplicate, read-out: IC50 values against cancer cells, PaCa2 pancreatic. The method, then: as §2
For assay [6], the system named is DU145 prostate cancer cells. Put plainly: MTS cell viability assay, DU145 prostate cancer cells. Type of assay: cell-based, human. The conditions noted are these: quadruplicate, read-out: IC50 values against cancer cells, DU145 prostate.
Setting [7] is: Homo sapiens, A2058, 48 h, 48 h exposure.
The mark [8] stands for this setting: Homo sapiens, DU-145, 48 h, 48 h exposure.
The mark [9] stands for this setting: Homo sapiens, A2058, 48 h exposure.
[10] abbreviates: Homo sapiens, DU-145, 48 h exposure.

Chain of c-Src (P12931 whole entry): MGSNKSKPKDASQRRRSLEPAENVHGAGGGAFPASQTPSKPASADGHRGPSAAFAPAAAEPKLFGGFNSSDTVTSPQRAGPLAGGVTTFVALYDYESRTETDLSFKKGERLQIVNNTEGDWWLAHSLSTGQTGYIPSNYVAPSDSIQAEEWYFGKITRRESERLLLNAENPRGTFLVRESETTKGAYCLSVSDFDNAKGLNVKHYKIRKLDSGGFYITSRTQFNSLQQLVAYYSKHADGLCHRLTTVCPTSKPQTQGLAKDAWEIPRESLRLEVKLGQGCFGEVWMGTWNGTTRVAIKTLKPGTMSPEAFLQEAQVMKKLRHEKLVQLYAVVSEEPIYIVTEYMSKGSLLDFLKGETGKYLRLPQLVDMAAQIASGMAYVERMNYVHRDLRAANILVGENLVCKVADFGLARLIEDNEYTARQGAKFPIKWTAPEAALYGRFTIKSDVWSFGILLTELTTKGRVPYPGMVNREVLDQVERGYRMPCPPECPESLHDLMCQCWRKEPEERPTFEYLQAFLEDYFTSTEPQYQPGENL
Chain of TYK2 (P29597 whole entry): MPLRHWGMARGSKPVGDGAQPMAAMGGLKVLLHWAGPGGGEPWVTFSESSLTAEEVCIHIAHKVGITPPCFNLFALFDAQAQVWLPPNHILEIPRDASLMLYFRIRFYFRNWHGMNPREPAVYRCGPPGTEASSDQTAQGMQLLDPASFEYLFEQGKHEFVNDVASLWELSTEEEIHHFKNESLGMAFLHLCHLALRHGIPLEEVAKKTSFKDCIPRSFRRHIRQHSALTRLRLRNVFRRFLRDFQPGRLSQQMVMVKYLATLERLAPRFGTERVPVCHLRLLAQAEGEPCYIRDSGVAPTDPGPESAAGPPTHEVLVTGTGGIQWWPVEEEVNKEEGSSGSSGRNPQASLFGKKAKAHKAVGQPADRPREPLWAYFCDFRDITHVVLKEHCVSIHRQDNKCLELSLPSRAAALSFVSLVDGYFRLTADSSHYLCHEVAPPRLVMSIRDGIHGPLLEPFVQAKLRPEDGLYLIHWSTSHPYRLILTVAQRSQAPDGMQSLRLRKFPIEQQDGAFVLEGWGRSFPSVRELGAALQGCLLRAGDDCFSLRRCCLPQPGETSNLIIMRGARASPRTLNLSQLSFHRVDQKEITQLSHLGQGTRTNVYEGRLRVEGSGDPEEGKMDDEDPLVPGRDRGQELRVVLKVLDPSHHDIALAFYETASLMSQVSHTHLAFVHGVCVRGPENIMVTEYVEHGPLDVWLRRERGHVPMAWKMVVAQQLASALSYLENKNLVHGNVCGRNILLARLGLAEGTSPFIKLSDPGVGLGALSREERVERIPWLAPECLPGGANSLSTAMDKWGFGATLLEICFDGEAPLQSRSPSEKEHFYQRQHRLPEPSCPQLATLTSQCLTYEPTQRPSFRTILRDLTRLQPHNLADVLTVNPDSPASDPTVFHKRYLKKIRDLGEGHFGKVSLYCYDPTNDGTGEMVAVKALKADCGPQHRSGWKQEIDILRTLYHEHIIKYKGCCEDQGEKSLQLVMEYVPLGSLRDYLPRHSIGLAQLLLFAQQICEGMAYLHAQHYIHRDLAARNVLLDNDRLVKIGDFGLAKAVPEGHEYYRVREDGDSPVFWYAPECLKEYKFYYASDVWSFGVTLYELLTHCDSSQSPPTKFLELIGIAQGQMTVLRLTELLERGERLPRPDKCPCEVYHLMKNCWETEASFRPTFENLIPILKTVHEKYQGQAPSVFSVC

Consider `CCN(CC)CCO/N=C1/C(=C2/C(=O)Nc3ccc(Br)cc32)Nc2ccccc21` [Compound 1276], for which the IC50 turned out to be 1020 nM on ABL1; 954 nM on AuroraA; 526 nM at JAK2; 34.3 nM on c-Src; 31.6 nM at TYK2; 300 nM in [1]. For the same molecule, the IC50 worked out at 300 nM in assay [2]; 470 nM in assay [3]; 6.58 µM on ABL1 (T315I); 410 nM in assay [4]; 360 nM with A2058 melanoma cells (setting [7]); 1200 nM in assay [5]. Moreover, the IC50 in [6] (setting [8]) is 420 nM. For the same molecule, the “effect on viabilities of SKOV3 ovarian cancer cells” value in [4] was “reduce viabilities”.
Consider `CCN(CC)CCON=C1C(=C2C(=O)Nc3ccc(Br)cc32)Nc2ccccc21` [Compound 1277], for which the IC50 was 4770 nM at ABL1; 3310 nM on AuroraA; 1250 nM at JAK2; 95.4 nM at c-Src; 146 nM at TYK2; > 10 µM at ABL1 (T315I). In addition, the results for the IC50 (in the assay with A2058 melanoma cells (setting [7]); in assay [6] (setting [8])) were 1900 nM and 770 nM, respectively.
For the molecule `CN(CCO/N=C1/C(=C2/C(=O)Nc3ccc(Br)cc32)Nc2ccccc21)CC(O)CO` (centres unmarked) [Compound 1278], the concentration for half-maximal inhibition (IC50) at ABL1 was found to be 392 nM; at AuroraA, 122 nM; on JAK2 it was 104 nM; on c-Src, 12.1 nM; at TYK2 it was 27 nM; in [1], 500 nM. The IC50 stood at 710 nM in [2]; 600 nM in [3]; 1.55 µM at ABL1 (T315I); 750 nM in assay [4]; 1700 nM with A2058 melanoma cells (setting [7]); 2500 nM in [5]. Further, in [6] (48 h exposure), the IC50 is 780 nM.
On to `CN(CCO/N=C1/C(=C2/C(=O)Nc3ccc(Br)cc32)Nc2ccccc21)CC(O)CO` (centres unmarked) [Compound 1279], for which the half-inhibitory concentration (IC50) on ABL1 was 1440 nM; at AuroraA, 301 nM; at JAK2, 410 nM; at c-Src, 69.6 nM; on TYK2 it was 62.7 nM; on ABL1 (T315I) it was 5.55 µM. In addition, the figures for the IC50 (with A2058 melanoma cells (48 h exposure); in [6] (48 h exposure)) were 2200 nM and 2000 nM, respectively.
In the case of `O=C1Nc2ccc(Br)cc2/C1=C1/Nc2ccccc2/C1=N\OCCN1CCCC1` [Compound 1280], the concentration for half-maximal inhibition (IC50) in assay [1] was found to be 860 nM; in [2], 660 nM; in assay [3], 840 nM; in assay [4], 1340 nM; in the assay with A2058 melanoma cells (setting [9]), 1600 nM; in assay [5], 960 nM. In addition, the IC50 in assay [6] (setting [10]) is 660 nM.
Turning to `O=C1Nc2ccc(Br)cc2C1=C1Nc2ccccc2C1=NOCCN1CCCC1` [Compound 1281], the half-maximal inhibitory concentration (IC50) came out at 2500 nM on ABL1; 2050 nM on AuroraA; 264 nM on JAK2; 19.7 nM at c-Src; 21 nM at TYK2; 580 nM in assay [1]. In addition, the IC50 in assay [2] came to 370 nM; in assay [3], 400 nM; at ABL1 (T315I) it was 7.08 µM; in [4], 750 nM; in the assay on A2058 melanoma cells (setting [9]) it was 1800 nM; in [5] it was 440 nM. Moreover, the IC50 in [6] (setting [10]) worked out at 660 nM.
`O=C1Nc2ccc(Br)cc2/C1=C1/Nc2ccccc2/C1=N\OCCN1CCN(CCO)CC1` [Compound 1282]: the concentration for half-maximal inhibition (IC50) stood at 780 nM in [2]; 500 nM in assay [3]; 770 nM in assay [4]; 1000 nM in assay [5]; 910 nM in assay [6] (setting [10]).
Regarding `CN1CCN(CCO/N=C2/C(=C3/C(=O)Nc4ccc(Br)cc43)Nc3ccccc32)CC1` [Compound 1284], the IC50 is 1000 nM in assay [2], 440 nM in assay [3] and 1360 nM in [4].
For `O=C1Nc2ccc(Br)cc2/C1=C1/Nc2ccccc2/C1=N\OCCN1CCN(CCOCCO)CC1` [Compound 1286] the same measures were 1360 nM, 930 nM and 1840 nM.
On to `O=C1Nc2ccc(Br)cc2C1=C1Nc2ccccc2C1=NOCCN1CCNCC1` [Compound 1289], for which the half-maximal inhibitory concentration (IC50) on ABL1 stood at 71.4 nM; on AuroraA, 143 nM; at JAK2 it was 47.6 nM; at c-Src it was 3.7 nM; at TYK2 it was 20.1 nM; in [1], 600 nM. Also, the IC50 in [2] was found to be 400 nM; in assay [3], 380 nM; on ABL1 (T315I) it was 0.214 µM; in assay [4], 460 nM; in the assay with A2058 melanoma cells (setting [9]), 1100 nM; in assay [5], 460 nM. The IC50 in assay [6] (setting [10]) is 690 nM. Further, in assay [4], the “effect on viabilities of SKOV3 ovarian cancer cells” value is “reduce viabilities”.
`CN(C)CCO/N=C1/C(=C2/C(=O)Nc3ccc(Br)cc32)Nc2ccccc21` [Compound 1501]: the IC50 in the assay on A2058 melanoma cells (setting [9]) came out at 880 nM; in [6] (setting [10]) it was 320 nM.
The like results for `CCCN(CCC)CCO/N=C1/C(=C2/C(=O)Nc3ccc(Br)cc32)Nc2ccccc21` [Compound 1502] were, in that order, 1700 nM and 1500 nM.

As a reminder, the IC50 is the point on the concentration scale where inhibition reaches its midpoint.
